Data on one compound can be found in patent US20090186915A1, “Compositions and methods for treatment of glioblastoma, gliosarcoma, NSCLC, and head and neck cancer” (Unibioscreen S. A., priority 2006, published 2009).

One test deals with DU-145. The experiment in a line: MTT colorimetric assay, DU-145 cells. It is filed as cell-based. The following applies: Homo sapiens, 72 h, 3 days of culturing, mean of six determinations, read-out: IC50 (μM) In Vitro Growth Inhibition. The method, then:
(§1) The overall growth of human cancer cell lines was determined by means of the calorimetric MTT (3-[4,5-dimethylthiazol-2-yl]-diphenyl tetrazolium bromide; Sigma) assay, as detailed previously.
A general note: Tetrazolium dyes change colour on reduction, which living cells bring about.

A further test concerns BxPC3. Description: MTT overall cell growth, BxPC3 cells. Type of test: cell-based. The following applies: Homo sapiens. The method, then: Tests were performed in order to rapidly, i.e. within 5 days, measure the effect of the compound of example 2 on the overall cell growth. The test measures the number of metabolically active living cells that are able to transform the yellow product 3-(4,5-dimethylthiazol-2-yl)-2,5-diphenyl tetrazolium bromide (herein referred as MTT) into the blue product formazan dye by mitochondrial reduction. The amount of formazan obtained at the end of the experiment, measured by means of a spectrophotometer, is directly proportional to the number of living cells. Optical density determination thus enables a quantitative measurement of the effect of the investigated compounds as compared to the control condition (untreated cells) and/or to other reference compounds.
Six human cancer cell lines described in table 1 were used in the following MTT tests. These cell lines cover six histological cancer types, being prostate, glioma, pancreas, colon, lung and breast cancers. Cells were allowed to grow in 96 well micro-wells with a flat bottom with an amount of 100 μl of cell suspension per well with 1,000 to 4,000 cells/well depending on the cell type used. Each cell line was seeded in a well known MEM 10% serum culture medium. […]
After 72 hours of incubation at 37° C. with (experimental conditions) or without (control condition) the compound to be tested, the medium was replaced by 100 μl MTT dissolved in RPMI (1640 without phenol red) at a concentration of 1 mg/ml. […] The micro-wells were shaken for 5 minutes and read on a spectrophotometer at wavelengths of 570 nm (maximum formazan absorbance) and 630 nm (back-ground noise).
For each experimental condition, the mean optical density was calculated, as well as the percentage of remaining living cells in comparison with the control.
as §1

For another test, the system named is LoVo. The experiment in a line: MTT colorimetric assay, LoVo cells. The following applies: Homo sapiens, 72 h, 3 days of culturing, mean of six determinations, read-out: IC50 (μM) In Vitro Growth Inhibition. Type of test: cell-based. The method, then: as §1
For a further test, the system named is GM-CFC. The experiment in a line: HALO hematotoxicity assay, mouse GM-CFC. It is filed as cell-based. The following applies: 5 days culture, iATP. The method, then: Investigation of the hematotoxic potential of UNBS5162 was undertaken by HemoGenix (Colorado Springs, Colo.). The effects of UNBS5162 on stem and progenitor cell populations from murine and human bone marrow were assessed using HALO (Hematopoietic/Hematotoxicity Assay through Luminescence Output) technology. Stem and hematopoietic progenitor cell populations were isolated from mouse and human bone marrow samples, plated at a concentration of 1.0×10^4 cells/well and cultured for 5 and 7 days, respectively, in the presence of growth factors and increasing concentrations of UNBS5162 ranging from 0.5 nM to 50 μM. The proliferative or growth potential of cell populations was determined from intracellular ATP (iATP) concentrations and a luciferin/luciferase bioluminescence signal detection system. All samples were assayed in eight replicates. The results are presented as estimated inhibitory concentration (IC) values.

The test system of another test is Hs683 or U373 cells. The experiment in a line: Apoptosis by Annexin V-FITC flow cytometry, glioma cells. It is filed as cell-based, human. The following applies: 10 μM for 72 h. The method, then: UNBS5162-induced apoptotic effects as evaluated by flow cytometry with Annexin V-FITC staining of Hs683 or U373 cells either left untreated (0 μM) or treated with 1 and 10 μM UNBS5162 for 72 h, either as a single treatment (gray bars) or as repeated (“chronic”; black bars) treatment (i.e. 1 μM or 10 μM each day for five days, “5×1”). The data are presented as means+SEM. “*” means that all GBM cells died before the end of the experiment.
In general terms: A flow cytometer gives signals particle by particle.

SMILES strings stand for the structures. Where two headings read alike, the source gives them in different places.

As for `CN(C)CCN1C(=O)c2cccc3cc(NC(N)=O)cc(c23)C1=O` [UNBS5162, N-{2-[2-(dimethylamino)ethyl]-1,3-dioxo-2,3-dihydro-1H-benzo[de]isoquinolin-5-yl}urea], the IC50 (as a rule, the concentration at which inhibition is half-maximal) in the test on DU-145 was 16 µM; in the test on BxPC3 (BXPC-3, 72 h, Bx-PC-3, 3 days of culturing, mean of six determinations, read-out: IC50 (μM) In Vitro Growth Inhibition) it was 9.1 µM; in the test with BxPC3 (BXPC-3, BxPC3, 72 hours incubation, range of molar concentrations, read-out: IC50), 5 to 10 µM; in the test with LoVo it was 8.9 µM; with GM-CFC (120 h) it was 7.04 µM. The 90% effect level in the test with GM-CFC (120 h) (IC90) was put at 12 µM. Moreover, the concentration for an effect of 75% (IC75) (commonly the concentration at which the effect reaches the 75% level) with GM-CFC is 9.09 µM. In addition, the “apoptotic events (Annexin V-FITC)” value in the test with Hs683 or U373 cells is recorded as “induces moderate apoptotic events”.
